Test results as given in US20240360126A1, “PYRAZOLO[3,4-B]PYRIDINE COMPOUNDS FOR THE TREATMENT OF AUTOIMMUNE DISEASE” (Hoffmann-La Roche Inc., priority 2021, published 2024).

Tests used:
[1] = 3T3 in vitro phototoxicity assay (Neutral Red uptake); type: cell-based, mouse; conditions: mouse, Balb/c 3T3 mouse fibroblasts (clone A 31, ATCC CCL 163); approx. 5 J/cm^2 UVA light
Text: (§1) Phototoxicity is defined as a toxic response that is elicited after the first exposure of the skin to certain chemicals and subsequent exposure to light, or that is induced similarly by skin irradiation after systemic administration of a chemical substance. The assay used in this study is designed to detect the phototoxic potential of a chemical by using a simple in vitro cytotoxicity assay with Balb/c 3T3 mouse fibroblasts. The principle of this test is a comparison of the cytotoxicity of a chemical when tested with and without exposure to a non-toxic dose of UVA-light. Cytotoxicity is expressed as a dose dependent reduction of the growth rate of cells as determined by uptake of the vital dye Neutral Red one day after treatment.
(§2) Preparation of Stock Solution and Dosage of Test Item A small amount of substance was weighed and formulated freshly in DMSO just before the start of the exposure of the cells. This stock solution or appropriate dilutions with DMSO were added to the cell suspensions to obtain the required final concentrations. All solutions were generally prepared in Eppendorf caps and discarded after use.
(§3) • Chlorpromazine (HCL) (Sigma, Batch/Lot No.: 120M1328V), test concentration: 300 μg/mL, Solvent: PBS/3% DMSO
(§4) For this study the Neutral Red uptake (NRU) assay of Borenfreund and Puemer (Borenfreund, E, Puemer J A. Toxicity determined in vitro by morphological alterations and Neutral Red absorption. Toxicology Lett. 1985; 24:119-124) modified according to INVITTOX protocol No 78 (ERGATT/FRAME data bank of in vitro techniques in toxicology. INVITTOX PROTOCOL No 78. 3T3 NRU Phototoxicity Assay. March 1994) has been adapted to examine a possible phototoxic potential of the test item. This assay is based on the active uptake of the Neutral Red dye into the lysosomes of cultured murine fibroblasts. Because lysosomal membranes are known to be a site of action of many phototoxic compounds, this assay can provide a measure of potential for phototoxic injury.
(§5) A murine fibroblasts clone A 31 (ATCC no. CCL 163—passage No. 108) were cultured in 175 cm^2 tissue culture grade flasks, containing sDMEM (Dulbecco's […] Essential Medium, supplemented with 10% fetal calf serum, 2 mM L-glutamine, 100 units/ml Penicillin and 100 μg/ml streptomycin) at 37° C. in a humidified atmosphere of 6% CO2. Before cells approach confluence they were removed from flasks by trypsinisation. Prior to use in an assay, the cells were transferred to 96-well microtiter plates at a concentration of 1×10^4 cells/well in 100 μl volumes of sDMEM and allowed to attach for 24 h. […]
(§6) For each test item the microtiter plates were prepared according to Table 6. […] UV flux was measured with a UV-meter (Dr. Gröbel RM21). […]

[2] = tested on: Balb/c 3T3 mouse fibroblasts; assay: as above; type: cell-based; conditions: IC50 with and without UV exposure compared; cut-off >5
Text: as §1, §2, §3, §4, §5, §6

| SMILES | IC50 at 1 h [1] | Phototoxicity factor [2] |
| --- | --- | --- |
| Cc1cc(N2CC[C@H](c3ccc(N4CCOC[C@@H](N)C4)cn3)[C@@H](C)C2)c2cnn(C)c2n1 [Example 40, (6S)-4-[6-[(3R,4S)-1-(1,6-dimethylpyrazolo[3,4-b]pyridin-4-yl)-3-methyl-4-piperidyl]-3-pyridyl]-1,4-oxazepan-6-amine] | > 120 µg/mL | 1 |
| Cc1cc(N2CC[C@@H](c3ncc(N4CCOC[C@@H](N)C4)cc3C)[C@H](C)C2)c2cnn(C)c2n1 [Example 28, (6S)-4-[6-[(3S,4R)-1-(1,6-dimethylpyrazolo[3,4-b]pyridin-4-yl)-3-methyl-4-piperidyl]-5-methyl-3-pyridyl]-1,4-oxazepan-6-amine] | > 120 µg/mL | 1 |
